Among the data in the RepoRT retention time repository (doi:10.1007/s11306-011-0298-z) are LC retention time values, retold here.

The data set in a line: RP, Waters ACQUITY UPLC HSS T3, 100 × 2.1 mm, 1.8 µm, 30 °C, 0.3 mL/min, estimated dead time 0.73 min; A: water + 0.1% formic acid, pH 3; B: methanol + 0.1% formic acid, pH 3; gradient (min/%B) 0/0 6/0 56/100 60/100. The conditions noted are these: stereoisomer not certain.
For the molecule `CC(=O)NC1C(O)CC(O)(C(=O)O)OC1C(O)C(O)CO` (stereo unspecified) [N-Acetyl-neuraminic acid], the LC retention time is 1.5 min.

Take `CC(=O)NC(Cc1ccc(O)cc1)C(=O)O` (stereo unspecified) [N-acetyl tyrosine]: the LC retention time was 17.4 min. The same measure for `CC(=O)NC1C(O)OC(CO)C(O)C1O` (stereo unspecified) [N-acetyl-galactosamine]: 1.49 min; for `O=C1CCC(=O)N1O` [N-hydroxysuccinimide]: 2 min.

In the case of `N[C@@H](COP(=O)(O)O)C(=O)O` [O-phospho-L-serine], the LC retention time is 1.21 min. The same measure for `Oc1ccc(C2Oc3cc(O)cc4c3C2c2cc(O)cc3c2C(c2cc(O)cc5c2C4C(c2ccc(O)cc2)O5)C(c2ccc(O)cc2)O3)cc1` (stereo unspecified) [a-viniferin]: 33 min; for `CC(C=CC1(O)C(C)=CC(=O)CC1(C)C)=CC(=O)O` (stereo unspecified) [abscisic acid]: 31.3 min. With `CC(=O)NC(CS)C(=O)O` (stereo unspecified) [acetylcysteine], the LC retention time is 8 min.

For `Nc1ncnc2nc[nH]c12` [adenine*], the LC retention time is 2.33 min.

For `Nc1ncnc2c1ncn2C1OC(CO)C(O)C1OP(=O)(O)O` (stereo unspecified) [adenosine 2'-monophosphate], the LC retention time was 10.9 min. The same measure for `O=C(O)CCCCC(=O)O` [adipic acid]: 15.5 min; for `OCC(O)C(O)C(O)CO` (stereo unspecified) [adonitol]: 1.38 min; for `OCC1OC(O)C(O)C(O)C1O` (stereo unspecified) [allose]: 1.35 min. The same measure for `Cc1c(C)c2c(c(C)c1O)CCC(C)(CCCC(C)CCCC(C)CCCC(C)C)O2` (stereo not drawn) [alpha-tocopherol]: 59.2 min; for `O=CC(O)C(O)C(O)C(O)CO` (stereo unspecified) [altrose]: 1.43 min. As to `Oc1ccc(C=C2c3cc(O)cc(O)c3C(c3ccc(O)cc3)C2c2cc(O)cc(O)c2)cc1` (stereo unspecified) [ampelopsin D + quadrangularin A], the LC retention time was 26.2 min.

As to `Oc1ccc(C2Oc3cc(O)c4c(c3C2c2cc(O)cc(O)c2)C2C(c3ccc(O)cc3)c3c(O)cc5c(c3C2C4c2ccc(O)cc2)C(c2cc(O)cc(O)c2)C(c2ccc(O)cc2)O5)cc1` (stereo unspecified) [ampelopsin H], the LC retention time was 29.8 min. For the molecule `N#CC(OC1OC(COC2OC(CO)C(O)C(O)C2O)C(O)C(O)C1O)c1ccccc1` (stereo unspecified) [amygdalin], the LC retention time is 19.3 min. With `COc1ccc(C=O)cc1` [anisaldehyde], the LC retention time was 27.1 min. Turning to `Nc1ccccc1C(=O)O` [anthranilic acid], the LC retention time was 19.1 min. The same measure for `O=c1cc(-c2ccc(O)cc2)oc2cc(OC3OC(CO)C(O)C(O)C3O)cc(O)c12` (stereo unspecified) [apigenin-7-O-glucoside]: 28.9 min.

As for `O=c1cc(-c2ccc(O)cc2)oc2cc(O)cc(O)c12` [apigenin], the LC retention time is 37.1 min. As to `O=c1cc(-c2ccc(O)cc2)oc2cc(OC3OC(CO)C(O)C(O)C3OC3OCC(O)(CO)C3O)cc(O)c12` (stereo unspecified) [apiin], the LC retention time is 29.6 min. `O=CC(O)C(O)C(O)CO` (stereo unspecified) [arabinose]: the LC retention time was 1.41 min. The same measure for `CCCCCC=CCC=CCC=CCC=CCCCC(=O)O` [arachidonic acid]: 53.5 min. For `OCC1OC(Oc2ccc(O)cc2)C(O)C(O)C1O` (stereo unspecified) [arbutin], the LC retention time was 7.61 min.

As to `OCC1OC(Oc2cc(O)cc(C=Cc3ccc(O)c(O)c3)c2)C(O)C(O)C1O` (stereo unspecified) [astringin], the LC retention time was 22.7 min.

For `CC1=C(C=CC(C)O)C(C)(C)CCC1` (stereo unspecified) [b-ionol], the LC retention time is 46.3 min. For the molecule `O=c1cc(-c2ccccc2)oc2cc(O)c(O)c(O)c12` [baicalein], the LC retention time is 36.6 min. Consider `CCCCCCCCCCCCCCCCCCCCCC(=O)O` [behenic acid], for which the LC retention time is 58.7 min. Turning to `O=C(O)c1ccccc1` [benzoic acid], the LC retention time is 26.2 min.

On to `O=C(OCc1ccccc1)c1ccccc1` [benzyl benzoate], for which the LC retention time is 43.5 min.

With `O=C(O)c1ccc(O)cc1O` [beta-resorcylic acid], the LC retention time is 19.6 min. For `C[N+](C)(C)CC(=O)[O-]` [betaine], the LC retention time is 1.38 min. The same measure for `C=C(C)C1CCC2(C(=O)O)CCC3(C)C(CCC4C5(C)CCC(O)C(C)(C)C5CCC43C)C12` (stereo unspecified) [betulinic acid]: 53.2 min; for `C=CC1=C(C)C(=Cc2[nH]c(Cc3[nH]c(C=C4NC(=O)C(C)=C4C=C)c(C)c3CCC(=O)O)c(CCC(=O)O)c2C)NC1=O` [bilirubin]: 56.4 min. As to `O=C(O)CCCCC1SCC2NC(=O)NC21` (stereo unspecified) [biotin], the LC retention time was 21.6 min. With `NCCCCCN` [cadaverine], the LC retention time was 1.1 min.

As for `O=C1CC(c2ccc(O)c(O)c2)c2c(cc(O)c3c2OC(c2ccc(O)c(O)c2)C(O)C3)O1` (stereo unspecified) [caffeic acid+catechin condensation product], the LC retention time is 26.1 min. Take `Cn1c(=O)c2c(ncn2C)n(C)c1=O` [caffeine]: the LC retention time was 20.4 min. The same measure for `O=C(C=Cc1ccc(O)c(O)c1)OC(C(=O)O)C(O)C(=O)O` (stereo unspecified) [caftaric acid]: 15.5 min; for `CC12CCC(CC1=O)C2(C)C` (stereo unspecified) [camphor]: 36.5 min. The same measure for `OCC1OC(OC2C(CO)OC(O)C(O)C2O)C(O)C(O)C1O` (stereo unspecified) [cellobiose]: 1.55 min; for `CC(CCC(=O)O)C1CCC2C3C(O)CC4CC(O)CCC4(C)C3CCC12C` (stereo unspecified) [chenodeoxycholic acid]: 49.4 min; for `C=CC1CN2CCC1CC2C(O)c1ccnc2ccccc12` (stereo unspecified) [chinchonidine sulphate]: 19.1 min.

Regarding `O=C(C=Cc1ccc(O)c(O)c1)OC1CC(O)(C(=O)O)CC(O)C1O` (stereo unspecified) [chlorogenic acid], the LC retention time is 18 min. Turning to `CC(C)CCCC(C)C1CCC2C3CC=C4CC(O)CCC4(C)C3CCC12C` (stereo unspecified) [cholesterol], the LC retention time is 60.2 min. As to `CC(CCC(=O)O)C1CCC2C3C(O)CC4CC(O)CCC4(C)C3CC(O)C12C` (stereo unspecified) [cholic acid], the LC retention time was 46.8 min. As to `C[N+](C)(C)CCO` [choline], the LC retention time was 1.4 min. In the case of `O=c1cc(-c2ccccc2)oc2cc(O)cc(O)c12` [chrysin], the LC retention time was 40.9 min. The same measure for `O=C(O)C=Cc1ccccc1` [cinnamic acid]: 31.8 min; for `CCCCCCCC/C=C\CCCCCCCCCC(=O)O` [cis-11-eicosenoic acid]: 56.2 min; for `O=C(O)C=C(CC(=O)O)C(=O)O` [cis-acotinic acid]: 4.4 min. For the molecule `OCC1OC(Oc2cc(O)cc(C=Cc3ccc(O)cc3)c2)C(O)C(O)C1O` (stereo not drawn) [cis-piceid], the LC retention time is 27.2 min. Consider `Oc1ccc(/C=C\c2cc(O)cc(O)c2)cc1` [cis-resveratrol], for which the LC retention time was 30.4 min. As to `CC(O)(CC(=O)O)C(=O)O` (stereo unspecified) [citramalic acid], the LC retention time was 5.18 min.

For `O=C(O)CC(O)(CC(=O)O)C(=O)O` [citric acid], the LC retention time was 3.91 min. With `COc1cc(C=CCO)ccc1O` [coniferyl alcohol], the LC retention time is 22.8 min.

Regarding `COc1cc(C=CC=O)ccc1O` [coniferyl aldehyde], the LC retention time was 25.9 min. As for `O=C(C=Cc1ccc(O)c(O)c1)OC1C(O)CC(O)(C(=O)O)CC1O` (stereo unspecified) [cryptochlorogenic acid], the LC retention time is 20.1 min. Regarding `CC(C)c1ccc(C=O)cc1` [cuminaldehyde], the LC retention time was 38.6 min. For `OCC1OC(Oc2cc3c(O)cc(O)cc3[o+]c2-c2ccc(O)c(O)c2)C(O)C(O)C1O` (stereo unspecified) [cyanidin 3 galactoside], the LC retention time was 22.1 min. With `OCC1OC(Oc2cc3c(OC4OC(CO)C(O)C(O)C4O)cc(O)cc3[o+]c2-c2ccc(O)c(O)c2)C(O)C(O)C1O` (stereo unspecified) [cyanidin-3,5-diglucoside], the LC retention time was 18.4 min.

For the molecule `Oc1cc(O)c2cc(OC3OCC(O)C(O)C3O)c(-c3ccc(O)c(O)c3)[o+]c2c1` (stereo unspecified) [cyanidin-3-arabinoside], the LC retention time was 23.1 min. The same measure for `CC1OC(OCC2OC(Oc3cc4c(O)cc(O)cc4[o+]c3-c3ccc(O)c(O)c3)C(O)C(O)C2O)C(O)C(O)C1O` (stereo unspecified) [cyanidin-3-rutinoside]: 23.1 min; for `Oc1cc(O)c2cc(O)c(-c3ccc(O)c(O)c3)[o+]c2c1` [cyanidin]: 28.9 min. As for `O=c1c(-c2ccc(O)cc2)coc2cc(O)ccc12` [daidzein], the LC retention time is 32.5 min.

For the molecule `CCCCCCCCCC(=O)O` [decanoic acid], the LC retention time was 45.6 min. `O=C1OC(C(O)CO)C(=O)C1=O` (stereo unspecified) [dehydroascorbic acid]: the LC retention time was 1.72 min. With `CC1OC(OCC2OC(Oc3cc4c(O)cc(O)cc4[o+]c3-c3cc(O)c(O)c(O)c3)C(O)C(O)C2O)C(O)C(O)C1O` (stereo unspecified) [delphinidin 3 rutinoside], the LC retention time is 21.9 min.

On to `OCC1OC(Oc2cc3c(O)cc(O)cc3[o+]c2-c2cc(O)c(O)c(O)c2)C(O)C(O)C1O` (stereo unspecified) [delphinidin-3-glucoside], for which the LC retention time was 20.9 min. The same measure for `O=c1cc2oc(-c3cc(O)c(O)c(O)c3)c(O)cc-2c(O)c1` [delphinidin]: 27.1 min; for `CC(CCC(=O)O)C1CCC2C3CCC4CC(O)CCC4(C)C3CC(O)C12C` (stereo unspecified) [deoxycholic acid]: 49.6 min.

Consider `CCNCC` [diethylamine], for which the LC retention time was 1.68 min.

On to `CC(=O)C=CC1C(C)CCCC1(C)C` (stereo not drawn) [dihidro alpha ionone], for which the LC retention time is 46.1 min.

Consider `O=C1c2c(O)cc(O)cc2OC(c2ccc(O)cc2)C1O` (stereo unspecified) [dihydrokaempferol], for which the LC retention time is 27.8 min.
